The test system of one assay is Pfeiffer (EZH2 A677G). Briefly: In vitro 50% growth inhibition (GI50), MTT/CCK8, Pfeiffer cells. The conditions noted are these: for GI50: Homo sapiens, Pfeiffer, 240 h, Drug treatment for 10 days; for growth inhibitory activity / GI50 level against Pfeiffer, in words: EZH2 A677G mutant cells Pfeiffer. The assay is classed as cell-based, Human. An excerpt:
(§1) In the present invention, a representative tumor cell line was selected to determine the cell growth inhibition activity of the present compound. Cell culture conditions and methods were in accordance with the requirements for each cell lines. The cells were subcultured in vitro for less than 3 generations each time, and as required, monoclone purification and identification of cell lines could be carried out.
(§2) The cell culture media used were RPMI1640 (Gibco) comprising 5-20% of fetal bovine serum (Gibco), 1% of double-antibiotic and 2 mM of glutamine.
(§3) Suspension culture cells were collected by centrifugation (1700 rpm, 3 minutes), and the supernatant was discarded and the cells were counted. According to each cell growth cycle, different concentrations of cells were prepared (1-10×10^4 cells per ml) and added to 96-well plates (Corning) with 100 μl per well, and then incubated overnight at 37° C., 5% CO2. The next day, the test compound was added to the cultured cells (2 wells in parallel). The final concentration of the solvent was less than 1/1,000. The cells were further cultured for 6 to 12 days and assayed by MTT.
(§4) The compound was stored at a concentration of 10 mM at −20° C. and diluted to two-fold or 10-fold series prior to use.
(§5) For the suspension culture cells, CCK8 was directly added to 10% of the final concentration. The cells were continually incubated for […].
(§6) The experiments were repeated 3 times and a statistical analysis of data was conducted.

The subject of a further assay is Karpas-422 (EZH2 Y641N). The experiment in a line: In vitro 50% growth inhibition (GI50), MTT/CCK8, Karpas-422 cells. The assay is classed as cell-based. As to conditions: Homo sapiens, KARPAS-422, 144 h; Drug treatment for 6 days.
Source text: as §1, §2, §3, §4, §5, §6

Another assay deals with SU-DHL-8 (EZH2 WT). The experiment in a line: In vitro 50% growth inhibition (GI50), MTT/CCK8, SU-DHL-8 cells. The assay is classed as cell-based. The conditions noted are these: Homo sapiens, SU-DHL-8, 144 h; Drug treatment for 6 days.
Source text: as §1, §2, §3, §4, §5, §6

19 compounds from patent US11214561B2, “Histone methyltransferase EZH2 inhibitor, preparation method and pharmaceutical use thereof” (ANCUREALL PHARMACEUTICAL (SHANGHAI) CO., LTD., priority 2017, dated 2022) can be followed below.

A value given as a limit tells only on which side of the number the result lay.

For the compound `C=CC(=O)N1CCC(N(CC)c2cc(Cl)cc(C(=O)NCc3c(C)cc(C)[nH]c3=O)c2C)C1` (centres unmarked) [Example 3, 3-[(1-acryloyl-pyrrolidin-3-yl)-ethyl-amino]-5-chloro-N-(4,6-dimethyl-2-oxo-1,2-dihydro-pyridin-3-ylmethyl)-2-methyl-benzamide], the figures for the GI50 in the assay with Pfeiffer (EZH2 A677G), in the assay on Karpas-422 (EZH2 Y641N) and in the assay with SU-DHL-8 (EZH2 WT) were 1 to 10 nM, 10 to 100 nM and above 1000 nM, respectively.
In the case of `C=CC(=O)N1CCC(N(CC)c2cc(-c3ccc(CN4CCOCC4)c(Cl)c3)cc(C(=O)NCc3c(C)cc(C)[nH]c3=O)c2C)C1` (centres unmarked) [Example 21, N-(4,6-dimethyl-2-oxo-1,2-dihydro-pyridin-3-ylmethyl)-5-[(1-acryloyl-pyrrolidin-3-yl)-ethyl-amino]-3′-chloro-4′-(morpholin-4-ylmethyl)-4-methyl-biphenyl-3-carboxamide], the results for the 50% growth inhibitory concentration (GI50) in the assay with Pfeiffer (EZH2 A677G), with Karpas-422 (EZH2 Y641N) and in the assay with SU-DHL-8 (EZH2 WT) were 1 to 10 nM, 100 to 1000 nM and above 1000 nM, respectively.
In the case of `C=CC(=O)N1CCC(N(CC)c2cc(F)cc(C(=O)NCc3c(C)cc(C)[nH]c3=O)c2C)C1` (centres unmarked) [Example 2, 3-[(1-acryloyl-pyrrolidin-3-yl)-ethyl-amino]-5-fluoro-N-(4,6-dimethyl-2-oxo-1,2-dihydro-pyridin-3-ylmethyl)-2-methyl-benzamide], the values for the concentration for 50% growth inhibition (GI50) in the assay with Pfeiffer (EZH2 A677G), with Karpas-422 (EZH2 Y641N) and in the assay on SU-DHL-8 (EZH2 WT) were 10 to 100 nM, 10 to 100 nM and above 1000 nM, respectively.
Regarding `C=CC(=O)N1CCC(N(CC)c2cc(OC)cc(C(=O)NCc3c(C)cc(C)[nH]c3=O)c2C)C1` (centres unmarked) [Example 16, 3-[(1-acryloyl-pyrrolidin-3-yl)-ethyl-amino]-5-methoxy-N-(4,6-dimethyl-2-oxo-1,2-dihydrogen-pyridin-3-ylmethyl)-2methyl-benzamide], the GI50 is 10 to 100 nM with Pfeiffer (EZH2 A677G), 100 to 1000 nM with Karpas-422 (EZH2 Y641N) and above 1000 nM in the assay with SU-DHL-8 (EZH2 WT).
Turning to `C=CC(=O)N1CCC(N(CC)c2cc(-c3ccc(CN4CCOCC4)c(F)c3)cc(C(=O)NCc3c(C)cc(C)[nH]c3=O)c2C)CC1` [Example 62, N-(4,6-dimethyl-2-oxo-1,2-dihydro-pyridin-3-ylmethyl)-5-[(1-acryloyl-piperidin-4-yl)-ethyl-amino]-3′-fluoro-4-methyl-4′-(morpholin-4-ylmethyl)-[1,1′-biphenyl]-3-carboxamide], the results for the GI50 with Pfeiffer (EZH2 A677G), in the assay with Karpas-422 (EZH2 Y641N) and with SU-DHL-8 (EZH2 WT) were 1 to 10 nM, 10 to 100 nM and above 1000 nM, respectively.
As to `C=CC(=O)N1CCC(N(CC)c2cc(-c3ccc(OCCN4CCOCC4)cc3)cc(C(=O)NCc3c(C)cc(C)[nH]c3=O)c2C)C1` (centres unmarked) [Example 48, N-(4,6-dimethyl-2-oxo-1,2-dihydro-pyridin-3-ylmethyl)-5-[(1-acryloyl-pyrrolidin-3-yl)-ethyl-amino]-4-methyl-4′-[2-(morpholin-4-yl)-ethoxy]-[1,1′-biphenyl]-3-carboxamide], the GI50 with Pfeiffer (EZH2 A677G) was 10 to 100 nM; in the assay on Karpas-422 (EZH2 Y641N), 100 to 1000 nM; in the assay on SU-DHL-8 (EZH2 WT) it was above 1000 nM.
Take `C=CC(=O)N1CCC(N(CC)c2cc(-c3cccc(CN4CCOCC4)c3)cc(C(=O)NCc3c(C)cc(C)[nH]c3=O)c2C)C1` (centres unmarked) [Example 30, N-(4,6-dimethyl-2-oxo-1,2-dihydro-pyridin-3-ylmethyl)-5-[(1-acryloyl-pyrrolidin-3-yl)-ethyl-amino]-4-methyl-3′-(morpholin-4-yl)-methyl-[1,1′-biphenyl]-3-carboxamide]: the GI50 in the assay with Pfeiffer (EZH2 A677G) is 1 to 10 nM; with Karpas-422 (EZH2 Y641N), 10 to 100 nM; in the assay with SU-DHL-8 (EZH2 WT), above 1000 nM.
Turning to `C=CC(=O)N1CCC(N(CC)c2cc(-c3ccc(CN4CCC5(CCCO5)CC4)cc3)cc(C(=O)NCc3c(C)cc(C)[nH]c3=O)c2C)CC1` [Example 87, N-(4,6-dimethyl-2-oxo-1,2-dihydro-pyridin-3-ylmethyl)-5-[(1-acryloyl-piperidin-4-yl)-ethyl-amino]-4-methyl-4′-(1-oxa-8-aza-spiro[4.5]decan-8-ylmethyl)-[1,1′-biphenyl]-3-carboxamide], the “growth inhibitory activity / GI50 level against Pfeiffer, in words” value with Pfeiffer (EZH2 A677G) is reported as “subnanomolar level”. Also, the values for the GI50 with Pfeiffer (EZH2 A677G), with Karpas-422 (EZH2 Y641N) and in the assay on SU-DHL-8 (EZH2 WT) were below 1 nM, 10 to 100 nM and above 1000 nM, respectively.
For the compound `C=CC(=O)N1CCC(N(CCCC)c2cc(Br)cc(C(=O)NCc3c(C)cc(C)[nH]c3=O)c2C)C1` (centres unmarked) [Example 9, 3-[(1-acryloyl-pyrrolidin-3-yl)-butyl-amino]-5-bromo-N-(4,6-dimethyl-2-oxo-1,2-dihydro-pyridin-3-ylmethyl)-2methyl-benzamide], the GI50 in the assay with Pfeiffer (EZH2 A677G) was 10 to 100 nM; with Karpas-422 (EZH2 Y641N) it was above 1000 nM; with SU-DHL-8 (EZH2 WT) it was above 1000 nM.
Regarding `C=CC(=O)N1CCC(N(CC)c2cc(-c3ccc(CN4CCC(N5CCOCC5)CC4)cc3)cc(C(=O)NCc3c(C)cc(C)[nH]c3=O)c2C)CC1` [Example 81], the concentration for 50% growth inhibition (GI50) with Pfeiffer (EZH2 A677G) was 1 to 10 nM; in the assay with Karpas-422 (EZH2 Y641N) it was 10 to 100 nM; in the assay with SU-DHL-8 (EZH2 WT), above 1000 nM.
On to `C=CC(=O)N1CCC(N(CC)c2cc(-c3ccc(CN4CCC(OCC)CC4)cc3)cc(C(=O)NCc3c(C)cc(C)[nH]c3=O)c2C)CC1` [Example 88, N-(4,6-dimethyl-2-oxo-1,2-dihydro-pyridin-3-ylmethyl)-5-[(1-acryloyl-piperidin-4-yl)-ethyl-amino]-4-methyl-4′-(4-ethoxypiperidin-1-ylmethyl)-[1,1′-biphenyl]-3-carboxamide], for which the “growth inhibitory activity / GI50 level against Pfeiffer, in words” value with Pfeiffer (EZH2 A677G) is “subnanomolar level”. Moreover, the GI50 is below 1 nM with Pfeiffer (EZH2 A677G), 10 to 100 nM in the assay with Karpas-422 (EZH2 Y641N) and above 1000 nM in the assay with SU-DHL-8 (EZH2 WT).
For `C=CC(=O)N1CCC(N(CC)c2cc(-c3ccc(CN4CCOCC4)cc3)cc(C(=O)NCc3c(C)cc(C)[nH]c3=O)c2C)C1` (centres unmarked) [Example 20, N-(4,6-dimethyl-2-oxo-1,2-dihydro-pyridin-3-ylmethyl)-5-[(1-acryloyl-pyrrolidin-3-yl)-ethyl-amino]-4′-(morpholin-4-ylmethyl)-4-methyl-biphenyl-3-carboxamide], the GI50 was 1 to 10 nM in the assay with Pfeiffer (EZH2 A677G), 100 to 1000 nM in the assay with Karpas-422 (EZH2 Y641N) and above 1000 nM in the assay on SU-DHL-8 (EZH2 WT).
In the case of `C=CC(=O)N1CCC(N(CC)c2cc(-c3cccc(CN4CCCN(C)CC4)c3)cc(C(=O)NCc3c(C)cc(C)[nH]c3=O)c2C)CC1` [Example 75, N-(4,6-dimethyl-2-oxo-1,2-dihydro-pyridin-3-ylmethyl)-5-[(1-acryloyl-piperidin-4-yl)-ethyl-amino]-4-methyl-3′-(4-methylhomopiperazin-1-ylmethyl)-[1,1′-biphenyl]-3-carboxamide], the figures for the GI50 in the assay with Pfeiffer (EZH2 A677G), in the assay with Karpas-422 (EZH2 Y641N) and in the assay on SU-DHL-8 (EZH2 WT) were 1 to 10 nM, 10 to 100 nM and above 1000 nM, respectively.
In the case of `C=CC(=O)N1CCC(N(CC)c2cc(Br)cc(C(=O)NCc3c(C)cc(C)[nH]c3=O)c2C)C1` (centres unmarked) [Example 1, 3-[(1-acryloyl-pyrrolidin-3-yl)-ethyl-amino]-5-bromo-N-(4,6-dimethyl-2-oxo-1,2-dihydro-pyridin-3-ylmethyl)-2-methyl-benzamide], the 50% growth inhibitory concentration (GI50) in the assay with Pfeiffer (EZH2 A677G) was 1 to 10 nM; in the assay with Karpas-422 (EZH2 Y641N), 10 to 100 nM; in the assay with SU-DHL-8 (EZH2 WT), above 1000 nM.
For the compound `C=CC(=O)N1CCC(N(C)c2cc(Br)cc(C(=O)NCc3c(C)cc(C)[nH]c3=O)c2C)C1` (centres unmarked) [Example 10, 3-[(1-acryloyl-pyrrolidin-3-yl)-methyl-amino]-5-bromo-N-(4,6-dimethyl-2-oxo-1,2-dihydro-pyridin-3-ylmethyl)-2methyl-benzamide], the GI50 was 10 to 100 nM with Pfeiffer (EZH2 A677G), above 1000 nM in the assay with Karpas-422 (EZH2 Y641N) and above 1000 nM in the assay on SU-DHL-8 (EZH2 WT).
On to `C=CC(=O)N1CCC(N(CC)c2cc(Br)cc(C(=O)NCc3c(C)cc(C)[nH]c3=O)c2C)CC1` [Example 6, 3-[(1-acryloyl-piperidin-4-yl)-ethyl-amino]-5-bromo-N-(4,6-dimethyl-2-oxo-1,2-dihydro-pyridin-3-ylmethyl)-2-methyl-benzamide], for which the GI50 is 1 to 10 nM in the assay with Pfeiffer (EZH2 A677G), 10 to 100 nM with Karpas-422 (EZH2 Y641N) and above 1000 nM in the assay with SU-DHL-8 (EZH2 WT).
On to `C=CC(=O)N1CCC(N(CC)c2cc(C#CCN3CCOCC3)cc(C(=O)NCc3c(C)cc(C)[nH]c3=O)c2C)C1` (centres unmarked) [Example 51, N-(4,6-dimethyl-2-oxo-1,2-dihydro-pyridin-3-ylmethyl)-3-[(1-acryloyl-pyrrolidin-3-yl)-ethyl-amino]-2-methyl-5-[3-(morpholin-4-yl)-propyn-1-yl]-benzamide], for which the concentration for 50% growth inhibition (GI50) in the assay on Pfeiffer (EZH2 A677G) was 1 to 10 nM; with Karpas-422 (EZH2 Y641N) it was 10 to 100 nM; in the assay on SU-DHL-8 (EZH2 WT), above 1000 nM.
In the case of `C=CC(=O)N1CCC(N(CC)c2cc(-c3ccc(CN(C)C)cc3)cc(C(=O)NCc3c(C)cc(C)[nH]c3=O)c2C)C1` (centres unmarked) [Example 19, N-(4,6-dimethyl-2-oxo-1,2-dihydro-pyridin-3-ylmethyl)-5-[(1-acryloyl-pyrrolidin-3-yl)-ethyl-amino]-4′-(dimethylaminomethyl)-4-methyl-biphenyl-3-carboxamide], the GI50 in the assay on Pfeiffer (EZH2 A677G) is 10 to 100 nM; in the assay on Karpas-422 (EZH2 Y641N) it was 100 to 1000 nM; in the assay on SU-DHL-8 (EZH2 WT), above 1000 nM.
For `C=CC(=O)N1CCC(N(CC)c2cc(-c3ccc(N4CCN(C)CC4)nc3)cc(C(=O)NCc3c(C)cc(C)[nH]c3=O)c2C)C1` (centres unmarked) [Example 53, N-(4,6-dimethyl-2-oxo-1,2-dihydro-pyridin-3-ylmethyl)-3-[(1-acryloyl-pyrrolidin-3-yl)-ethyl-amino]-2-methyl-5-[6-(4-methylpiperazin-1-yl)-pyridin-3-yl]-benzamide], in that order: 1 to 10 nM, 10 to 100 nM and above 1000 nM.
